In paper PMC9501232, “Novel 4-Azapregnene Derivatives as Potential Anticancer Agents: Synthesis, Antiproliferative Activity and Molecular Docking Studies” (Molecules, 2022):

Assays:
Settings in all cases: 72 h
LNCaP cells = experiment: MTT cell proliferation assay, LNCaP; type: cell-based, human
Procedure: (§1) Cell lines, namely LNCaP, PC-3, T47-D and NHDF were obtained from American Type Culture Collection (ATCC; Manassas, VA, USA) and cultured in 75 cm^2 culture flasks at 37 °C in a humidified air incubator with 5% CO2. LNCaP, PC-3 and T47-D cells, which were used in passages 20th to 27th, 25th to 29th and 10th to 15th, respectively, were cultured in RPMI 1640 medium (Sigma-Aldrich, Inc., St. Louis, MO, USA) with 10% fetal bovine serum (FBS; Sigma-Aldrich, Inc. St. Louis, MO, USA) and 1% of the antibiotic mixture of 10,000 IU/mL penicillin G and […] of streptomycin (Sp, Sigma-Aldrich, Inc. St. Louis, MO, USA). Finally, NHDF cells (Normal Human Dermal Fibroblasts) were cultured in RPMI 1640 medium supplemented with 10% FBS, 2 mM L-glutamine, 10 mM HEPES, 1 mM sodium pyruvate and 1% of an antibiotic/antimycotic mixture (10,000 U/mL penicillin G, 100 mg/mL streptomycin and 25 µg/mL amphotericin B) (Ab; Sigma-Aldrich, Inc. St. Louis, MO, USA), and these cells were used in passages 10 to 12. For all cell types, the medium was renewed every 2–3 days until cells reach nearly the confluence state. Then, they were detached gently by trypsinization (trypsin-EDTA solution: 0.125 g/L of trypsin and 0.02 g/L of EDTA).
(§2) All the stock solutions were prepared by dissolving compounds in dimethyl sulfoxide (DMSO; Sigma-Aldrich, Inc., St. Louis, MO, USA) at 10 mM and stored at 4 °C. From these solutions, the several diluted compounds solutions in different concentrations were freshly prepared in a complete culture medium before each experiment.
(§3) As previously referred, cells were trypsinized after reaching a near confluence state and counted by the trypan blue exclusion assay in a Neubauer chamber. Then, 100 µL of cell suspension/well with an initial density of 2 × 10^4 cells/mL were seeded in 96-well culture plates (Nunc, Apogent, Denmark) and left to adhere for 48 h. After cells adherence, the medium was replaced by the distinct solutions of the compounds in the study (30 µM for preliminary studies and 0.01, 0.1, 1, 10, 50 and 100 µM for concentration–response studies) in the appropriate medium for approximately 72 h. 5-FU and finasteride were used as positive controls and untreated cells were used as the negative control. Each experiment was performed in quadruplicate and independently performed at least two times. The in vitro antiproliferative effects were evaluated by the MTT assay (Sigma-Aldrich, Inc. St. Louis, USA). After the incubation period, the medium was removed and 100 µL of phosphate buffer saline (NaCl 137 mM, KCl 2.7 mM, Na2HPO4 10 mM and KH2PO4 1.8 mM in deionized water and pH adjusted to 7.4) were used to wash the cells. Then, 100 µL of the MTT solution (5 mg/mL) was prepared in the appropriate serum-free medium and was added to each well, followed by incubation for 4 h at 37 °C. Hereafter, the MTT containing medium was removed and the formazan crystals were dissolved in DMSO. Then the absorbance was measured at 570 nm using a microplate spectrophotometer BIO-RAD xMarkTM. Cell viability values were expressed as percentages relative to the absorbance determined in the cells used as negative controls.
(§4) The data are expressed as a mean ± standard deviation (SD) and differences between groups were considered statistically significant when p < 0.05. The IC50 values were determined through sigmoidal fitting analysis with variable slope and considering a 95% confidence level. All data shown are representative of at least two independent experiments.

T47-D cells = experiment: MTT cell proliferation assay, T47-D; type: cell-based, human
Procedure: as §1, §2, §3, §4

[1] = system: NHDF cells (Normal Human Dermal Fibroblasts); experiment: MTT cell proliferation assay, NHDF; type: cell-based
Procedure: as §1, §2, §3, §4

## C[C@]12CC[C@H]3[C@@H](CC=C4NC(=O)CC[C@@]43C)[C@@H]1CC[C@@H]2C(=O)/C=C/c1cccnc1 [Compound 3g, 21E-[(Pyridin-3-yl)methylidene]-4-azapregn-5-ene-3,20-dione]
LNCaP cells; 30 µM, average ± SD
  MTT screening, cell proliferation: 0.7 ± 1.0 percentage of negative control
LNCaP cells; Homo sapiens, MTT
  IC50: 10.2 µM
T47-D cells; 30 µM, average ± SD
  MTT screening, cell proliferation: 1.0 ± 0.4 percentage of negative control
T47-D cells; Homo sapiens, T47D, MTT
  IC50: 1.33 µM
[1]; 30 µM, average ± SD
  MTT screening, cell proliferation: 23.8 ± 3.2 percentage of negative control
[1]; Homo sapiens, MTT
  IC50: 3.09 µM
